pIC50: −log10 of the molar value. Structures can show the parent of a compound that is named as a salt.

Sequence of human SPR (P35270 whole entry): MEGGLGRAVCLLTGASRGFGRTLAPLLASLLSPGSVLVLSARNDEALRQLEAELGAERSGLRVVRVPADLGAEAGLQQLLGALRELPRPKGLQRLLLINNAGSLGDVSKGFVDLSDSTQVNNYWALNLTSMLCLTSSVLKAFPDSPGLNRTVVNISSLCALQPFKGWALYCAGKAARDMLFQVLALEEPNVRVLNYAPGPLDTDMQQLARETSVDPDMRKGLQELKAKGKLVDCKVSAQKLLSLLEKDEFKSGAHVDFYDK

One assay addresses human SPR (Homo sapiens (Human), UniProt P35270). The experiment in a line: Evaluation Example 2: Measurement of human SPR inhibitory activity (seven concentrations, sepiapterin absorbance at 420 nm). The note with it: Evaluation Example 2, seven concentrations 0.14 nM to 100 nM, 240 minutes at room temperature, read-out: IC50. The assay is classed as biochemical. Summed up: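 Reactions ran 240 min at room temperature in 100 mM Tris-HCl pH 7.5 with 0.01% BSA. They contained tag-cleaved, E. coli-expressed full-length human SPR (diluted to 150 ng/mL), seven compound concentrations from 0.14 to 100 nM, and sepiapterin/NADPH added as a 120 μM/160 μM solution. Inhibition was calculated from sepiapterin absorbance at 420 nm.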
On to `CC(C)Cn1c(=O)c(C(=O)NC2CC2)c(O)n2ncc(/C=C/C(=O)N3CCC(C)(O)CC3)c12` [compound 467, (E)-N-Cyclopropyl-7-hydroxy-3-(3-(4-hydroxy-4-methylpiperidin-1-yl)-3-oxoprop-1-en-1-yl)-4-isobutyl-5-oxo-4,5-dihydropyrazolo[1,5-a]pyrimidine-6-carboxamide], for which the pIC50 is 9.10.

Turning to `Cc1nn2c(O)c(C(=O)NC3CC3)c(=O)n(CC(C)C)c2c1/C=C/C(=O)N1[C@H](C)CC[C@H]1C` [Synthesis Example 616, N-Cyclopropyl-3-((E)-3-((2R,5R)-2,5-dimethylpyrrolidin-1-yl)-3-oxoprop-1-en-1-yl)-7-hydroxy-4-isobutyl-2-methyl-5-oxo-4,5-dihydropyrazolo[1,5-a]pyrimidine-6-carboxamide], the pIC50 was 8.95.

As to `Cc1nn(C)c(C)c1CNC(=O)c1cnn2c(O)c(C(=O)NC3CC3)c(=O)n(CC(C)C)c12` [Synthesis Example 223, N6-Cyclopropyl-7-hydroxy-4-isobutyl-5-oxo-N3-((1,3,5-trimethyl-1H-pyrazol-4-yl)methyl)-4,5-dihydropyrazolo[1,5-a]pyrimidine-3,6-dicarboxamide], the pIC50 is 8.95.

For the molecule `Cc1nn2c(O)c(C(=O)NC3CC3)c(=O)n(CC(C)C)c2c1/C=C/C(=O)N1CCC[C@H]1C(C)(C)O` [Synthesis Example 677, (S,E)-N-Cyclopropyl-7-hydroxy-3-(3-(2-(2-hydroxypropan-2-yl)pyrrolidin-1-yl)-3-oxoprop-1-en-1-yl)-4-isobutyl-2-methyl-5-oxo-4,5-dihydropyrazolo[1,5-a]pyrimidine-6-carboxamide], the pIC50 is 9.02.

Turning to `CC(C)Cn1c(=O)c(C(=O)NC2CC2)c(O)n2nc(N)c(/C=C/C(=O)N3CCC(F)(F)CC3)c12` [Synthesis Example 414, (E)-2-Amino-N-cyclopropyl-3-(3-(4,4-difluoropiperidin-1-yl)-3-oxoprop-1-en-1-yl)-7-hydroxy-4-isobutyl-5-oxo-4,5-dihydropyrazolo[1,5-a]pyrimidine-6-carboxamide hydrochloride], the pIC50 is 9.15.

As for `CCc1nn2c(O)c(C(=O)NC3CC3)c(=O)n(CC(C)C)c2c1/C=C/C(=O)N1CCC[C@@H]1C(C)(C)O` [Synthesis Example 654, (R,E)-N-Cyclopropyl-2-ethyl-7-hydroxy-3-(3-(2-(2-hydroxypropan-2-yl)pyrrolidin-1-yl)-3-oxoprop-1-en-1-yl)-4-isobutyl-5-oxo-4,5-dihydropyrazolo[1,5-a]pyrimidine-6-carboxamide], the pIC50 is 9.02.

As for `Cc1nn2c(O)c(C(=O)NC3CC3)c(=O)n(CC(C)C)c2c1/C=C/C(=O)N1CCOC[C@H]1c1ccccc1` [Synthesis Example 642, (R,E)-N-Cyclopropyl-7-hydroxy-4-isobutyl-2-methyl-5-oxo-3-(3-oxo-3-(3-phenylmorpholino)prop-1-en-1-yl)-4,5-dihydropyrazolo[1,5-a]pyrimidine-6-carboxamide], the pIC50 is 9.03.

Take `C/C(=C\c1cnn2c(O)c(C(=O)NC3CC3)c(=O)n(CC(C)C)c12)C(=O)O` [Synthesis Example 252, (E)-3-(6-(Cyclopropylcarbamoyl)-7-hydroxy-4-isobutyl-5-oxo-4,5-dihydropyrazolo[1,5-a]pyrimidin-3-yl)-2-methylacrylic acid]: the pIC50 is 8.15.

Regarding `CC(C)(C)Cn1c(=O)c(C(=O)NC2CC2)c(O)n2nc3c(c12)CC(=O)N3` [Synthesis Example 402, N-Cyclopropyl-7-hydroxy-4-neopentyl-2,5-dioxo-2,3,4,5-tetrahydro-1H-pyrrolo[2′,3′:3,4]pyrazolo[1,5-a]pyrimidine-6-carboxamide], the pIC50 was 9.20.

As to `Cc1cc2n(CC(C)C)c(=O)c(C(=O)NC3CC3)c(O)n2n1` [Synthesis Example 319, N-Cyclopropyl-7-hydroxy-4-isobutyl-2-methyl-5-oxo-4,5-dihydropyrazolo[1,5-a]pyrimidine-6-carboxamide], the pIC50 was 8.50.

Turning to `COc1ncccc1-c1cc2n(CC(C)(C)C)c(=O)c(C(=O)NC3CC3)c(O)n2n1` [Synthesis Example 281, N-Cyclopropyl-7-hydroxy-2-(2-methoxypyridine-3-yl)-4-neopentyl-5-oxo-4,5-dihydropyrazolo[1,5-a]pyrimidine-6-carboxamide], the pIC50 is 8.51.

With `CC(C)Cn1c(=O)c(C(=O)NC2CC2)c(O)n2ncc(C(=O)NCc3ccncc3)c12` [Synthesis Example 217, N6-Cyclopropyl-7-hydroxy-4-isobutyl-5-oxo-N3-(pyridin-4-ylmethyl)-4,5-dihydropyrazolo[1,5-a]pyrimidine-3,6-dicarboxamide], the pIC50 is 9.16.

`CC(C)Cn1c(=O)c(C(=O)NC2CC2)c(O)n2ncc(/C=C/C(=O)N3CCC(C)(C)C3)c12` [compound 479, (E)-N-Cyclopropyl-3-(3-(3,3-dimethylpyrrolidin-1-yl)-3-oxoprop-1-en-1-yl)-7-hydroxy-4-isobutyl-5-oxo-4,5-dihydropyrazolo[1,5-a]pyrimidine-6-carboxamide]: the pIC50 is 8.98.

As to `CC(C)(C)Cn1c(=O)c(C(=O)NC2CC2)c(O)n2nc(Nc3cnc(C(C)(C)O)cn3)cc12` [Synthesis Example 349, N-Cyclopropyl-7-hydroxy-2-((5-(2-hydroxypropan-2-yl)pyrazin-2-yl)amino)-4-neopentyl-5-oxo-4,5-dihydropyrazolo[1,5-a]pyrimidine-6-carboxamide], the pIC50 was 8.87.

As for `O=C(NC1CC1)c1c(O)n2ncc(/C=C/C(=O)N3C[C@@H]4C[C@H]3CO4)c2n(CC2(F)CC2)c1=O` [Synthesis Example 375], the pIC50 was 9.19.

As to `Cc1nn2c(O)c(C(=O)NC3CC3)c(=O)n(CC(C)(C)C)c2c1/C=C/C(=O)N1CCOCC1` [compound 582, (E)-N-Cyclopropyl-7-hydroxy-2-methyl-3-(3-morpholino-3-oxoprop-1-en-1-yl)-4-neopentyl-5-oxo-4,5-dihydropyrazolo[1,5-a]pyrimidine-6-carboxamide], the pIC50 was 9.20.

Take `CC(C)Cn1c(=O)c(C(=O)NC2CC2)c(O)n2ncc(/C=C/C(=O)N3CCC(C(F)F)CC3)c12` [compound 466, (E)-N-Cyclopropyl-3-(3-(4-(difluoromethyl)piperidin-1-yl)-3-oxoprop-1-en-1-yl)-7-hydroxy-4-isobutyl-5-oxo-4,5-dihydropyrazolo[1,5-a]pyrimidine-6-carboxamide]: the pIC50 was 8.90.

Consider `CC(C)Cn1c(=O)c(C(=O)NC2CC2)c(O)n2ncc(/C=C/C(=O)N3CCOC[C@@H]3C)c12` [compound 455, (S,E)-N-Cyclopropyl-7-hydroxy-4-isobutyl-3-(3-(3-methylmorpholino)-3-oxoprop-1-en-1-yl)-5-oxo-4,5-dihydropyrazolo[1,5-a]pyrimidine-6-carboxamide], for which the pIC50 is 9.14.

The same assay, now with this note: sepiapterin absorbance, Table 41, read-out: concentration at 50% inhibition of human SPR (IC50).
As to `Cc1nn2c(O)c(C(=O)NC3CC3)c(=O)n(CC(C)C)c2c1/C=C/C(=O)N1CCN(C)C[C@@H]1C` [Synthesis Example 701, (S,E)-N-Cyclopropyl-3-(3-(2,4-dimethylpiperazin-1-yl)-3-oxoprop-1-en-1-yl)-7-hydroxy-4-isobutyl-2-methyl-5-oxo-4,5-dihydropyrazolo[1,5-a]pyrimidine-6-carboxamide], the pIC50 was 9.01.

(Values after US20240092784A1, “CONDENSED HETEROCYCLIC COMPOUND” (NISSAN CHEMICAL CORPORATION, priority 2020, published 2024).)
